Results reported in ChEMBL document CHEMBL1201862, “PubChem BioAssay data set” (2004).
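Values below derive from 48-hour exposures of cells grown in 96-well plates, with endpoints linearly interpolated between the two concentrations bracketing the appropriate inhibition level. GI50 = concentration required for 50% inhibition of growth.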 Active and inactive are the calls of the source. Cut-off read from the data, not from the text of the source: active = GI50 up to about 1.1 µM and inactive = higher.

Columns and labels:
Assay in all cases: growth of human tumour cells (NCI), 48 h
[1] = tested on: 786-0
[2] = tested on: OVCAR-5
[3] = tested on: OVCAR-8
[4] = tested on: UACC-257
[5] = tested on: SF-268
[6] = tested on: HT-29
[7] = tested on: ACHN
[8] = tested on: COLO 205
[9] = tested on: NCI-H522
[10] = tested on: NCI/ADR-RES
[11] = tested on: MCF7
[12] = tested on: SF-295
[13] = tested on: HL-60
[14] = tested on: SW-620
[15] = tested on: NCI-H460
[16] = tested on: MOLT-4
[17] = tested on: CAKI-1
[18] = tested on: CCRF-CEM
[19] = tested on: SK-MEL-28
[20] = tested on: RXF 393

SMILES	GI50 [1]	GI50 [2]	GI50 [3]	GI50 [4]	GI50 [5]	GI50 [6]	GI50 [7]	GI50 [8]	GI50 [9]	GI50 [10]	GI50 [11]	GI50 [12]	GI50 [13]	GI50 [14]	GI50 [15]	GI50 [16]	GI50 [17]	GI50 [18]	GI50 [19]	GI50 [20]
COC(=O)C[C@@H]1C(C)(C)[C@@H]2O[C@@]34C[C@@H]2C(=O)[C@]1(C)[C@H]3CC[C@@]1(C)[C@H](c2ccoc2)OC(=O)C[C@]14O	> 100 µM (inactive)	> 100 µM (inactive)	> 100 µM (inactive)	> 100 µM (inactive)	> 100 µM (inactive)	> 100 µM (inactive)	> 100 µM (inactive)	> 100 µM (inactive)	> 100 µM (inactive)	> 100 µM (inactive)	> 100 µM (inactive)	> 100 µM (inactive)	> 100 µM (inactive)	> 100 µM (inactive)	> 100 µM (inactive)	> 100 µM (inactive)	> 100 µM (inactive)	> 100 µM (inactive)	> 100 µM (inactive)	–
C1=C[C@@H]2c3ccc4cnccc4c3NC[C@@H]2C1	> 100 µM (inactive)	> 100 µM (inactive)	> 100 µM (inactive)	> 100 µM (inactive)	> 100 µM (inactive)	–	> 100 µM (inactive)	> 100 µM (inactive)	–	> 100 µM (inactive)	> 100 µM (inactive)	> 100 µM (inactive)	> 100 µM (inactive)	> 100 µM (inactive)	> 100 µM (inactive)	> 100 µM (inactive)	–	> 100 µM (inactive)	> 100 µM (inactive)	> 100 µM (inactive)
Cc1nc2c(O)cc3c4c([nH]c3c2nc1C)C(=O)CCC4	5.85 µM (inactive)	4.24 µM (inactive)	2.65 µM (inactive)	95.1 µM (inactive)	2.96 µM (inactive)	1.52 µM (inactive)	5.45 µM (inactive)	2.26 µM (inactive)	–	34.6 µM (inactive)	0.875 µM (active)	5.08 µM (inactive)	3.72 µM (inactive)	4.22 µM (inactive)	3.51 µM (inactive)	4.91 µM (inactive)	–	4.07 µM (inactive)	2.8 µM (inactive)	0.162 µM (active)
CC1CC[C@@]2(OC1)OC1C[C@H]3[C@@H]4C/C(=N\N(C)C)[C@@]5(O)CC(O)CC[C@]5(C)[C@H]4CC[C@]3(C)C1[C@@H]2C (stereo partly specified)	40.6 µM (inactive)	43.5 µM (inactive)	–	67.5 µM (inactive)	58.7 µM (inactive)	20 µM (inactive)	73.3 µM (inactive)	43.9 µM (inactive)	–	49.4 µM (inactive)	39.1 µM (inactive)	–	21.2 µM (inactive)	55.8 µM (inactive)	45.9 µM (inactive)	34.1 µM (inactive)	–	31.3 µM (inactive)	> 100 µM (inactive)	22.9 µM (inactive)
CC(C)(C)OC(=O)N(O)CCCn1cnc2c(N)ncnc21	> 100 µM (inactive)	> 100 µM (inactive)	> 100 µM (inactive)	> 100 µM (inactive)	> 100 µM (inactive)	> 100 µM (inactive)	> 100 µM (inactive)	> 100 µM (inactive)	> 100 µM (inactive)	> 100 µM (inactive)	> 100 µM (inactive)	> 100 µM (inactive)	–	> 100 µM (inactive)	> 100 µM (inactive)	> 100 µM (inactive)	–	> 100 µM (inactive)	> 100 µM (inactive)	> 100 µM (inactive)
CCOC(=O)c1cc(C2CCN(CC(C)CC)C2=S)c(C(=O)/C=C(/C)N)[nH]1 (stereo unspecified)	> 50 µM (inactive)	> 50 µM (inactive)	> 50 µM (inactive)	> 50 µM (inactive)	> 50 µM (inactive)	> 50 µM (inactive)	> 50 µM (inactive)	> 50 µM (inactive)	–	> 50 µM (inactive)	> 50 µM (inactive)	> 50 µM (inactive)	> 50 µM (inactive)	> 50 µM (inactive)	> 50 µM (inactive)	> 50 µM (inactive)	> 50 µM (inactive)	> 50 µM (inactive)	–	> 50 µM (inactive)
COc1ccc(/N=N/c2ccc3oc(=O)c(C(=O)Nc4ccc(Cl)cc4)cc3c2)cc1	> 10 µM (inactive)	> 10 µM (inactive)	> 10 µM (inactive)	> 10 µM (inactive)	3.72 µM (inactive)	> 10 µM (inactive)	> 10 µM (inactive)	> 10 µM (inactive)	> 10 µM (inactive)	5.5 µM (inactive)	3.17 µM (inactive)	> 10 µM (inactive)	–	6.97 µM (inactive)	> 10 µM (inactive)	7.46 µM (inactive)	> 10 µM (inactive)	–	> 10 µM (inactive)	> 10 µM (inactive)
OCCc1ccsc1-c1sc(-c2cc(CCO)c(-c3sccc3CCO)s2)cc1CCO	12 µM (inactive)	17.1 µM (inactive)	15.7 µM (inactive)	17 µM (inactive)	5.42 µM (inactive)	–	15.8 µM (inactive)	11.6 µM (inactive)	12.2 µM (inactive)	20.2 µM (inactive)	15.7 µM (inactive)	15.1 µM (inactive)	–	31.2 µM (inactive)	6.12 µM (inactive)	7.89 µM (inactive)	22.8 µM (inactive)	16.4 µM (inactive)	18.5 µM (inactive)	2.77 µM (inactive)
CCOC(=O)c1c(SCC#N)n(-c2ccccc2)c(=S)n(-c2ccccc2)c1=O	53.5 µM (inactive)	> 100 µM (inactive)	38.5 µM (inactive)	61.2 µM (inactive)	55.8 µM (inactive)	41.2 µM (inactive)	28.1 µM (inactive)	61.7 µM (inactive)	34.4 µM (inactive)	35.3 µM (inactive)	37.8 µM (inactive)	32.1 µM (inactive)	55.6 µM (inactive)	29.9 µM (inactive)	34.2 µM (inactive)	9.73 µM (inactive)	> 100 µM (inactive)	13.5 µM (inactive)	57.9 µM (inactive)	–
COc1cc(Cc2cnc(N)nc2N)cc(OC)c1OCCCNc1ccc([N+](=O)[O-])cc1	12.4 µM (inactive)	19 µM (inactive)	14.3 µM (inactive)	11.9 µM (inactive)	22.9 µM (inactive)	2.92 µM (inactive)	18 µM (inactive)	12.2 µM (inactive)	13 µM (inactive)	18.6 µM (inactive)	12.1 µM (inactive)	–	–	15.1 µM (inactive)	7.48 µM (inactive)	2.72 µM (inactive)	33.2 µM (inactive)	9.35 µM (inactive)	13.9 µM (inactive)	10.4 µM (inactive)
CC(=O)c1ccc(-c2oc(-c3ccccc3)cc2-c2ccc3c(c2)OCO3)s1	> 100 µM (inactive)	> 100 µM (inactive)	> 100 µM (inactive)	> 100 µM (inactive)	34.4 µM (inactive)	> 100 µM (inactive)	> 100 µM (inactive)	> 100 µM (inactive)	–	49.7 µM (inactive)	59 µM (inactive)	> 100 µM (inactive)	1.02 µM (active)	> 100 µM (inactive)	68.5 µM (inactive)	> 100 µM (inactive)	2.42 µM (inactive)	0.0313 µM (active)	–	> 100 µM (inactive)
Cc1ccccc1[P+](C)(c1ccccc1C)c1ccccc1C	24.8 µM (inactive)	13.6 µM (inactive)	15 µM (inactive)	2.58 µM (inactive)	34.8 µM (inactive)	5.85 µM (inactive)	15.8 µM (inactive)	10.6 µM (inactive)	5.24 µM (inactive)	25.5 µM (inactive)	14 µM (inactive)	–	–	13.6 µM (inactive)	20 µM (inactive)	–	–	0.0333 µM (active)	11.6 µM (inactive)	36.9 µM (inactive)
C#CCn1c(=O)c2cc(OC)c(OC)cc2n(CC#C)c1=O	> 10 µM (inactive)	> 10 µM (inactive)	> 10 µM (inactive)	> 10 µM (inactive)	> 10 µM (inactive)	> 10 µM (inactive)	> 10 µM (inactive)	> 10 µM (inactive)	> 10 µM (inactive)	> 10 µM (inactive)	> 10 µM (inactive)	> 10 µM (inactive)	–	> 10 µM (inactive)	> 10 µM (inactive)	> 10 µM (inactive)	> 10 µM (inactive)	> 10 µM (inactive)	> 10 µM (inactive)	> 10 µM (inactive)
Cc1nc2ccc(S(=O)(=O)Nc3ccc(Cl)cc3)cc2c(=O)n1NC(=O)CNc1ccc(Cl)cc1	> 100 µM (inactive)	> 100 µM (inactive)	> 100 µM (inactive)	> 100 µM (inactive)	> 100 µM (inactive)	> 100 µM (inactive)	> 100 µM (inactive)	> 100 µM (inactive)	> 100 µM (inactive)	> 100 µM (inactive)	> 100 µM (inactive)	> 100 µM (inactive)	> 100 µM (inactive)	> 100 µM (inactive)	> 100 µM (inactive)	> 100 µM (inactive)	> 100 µM (inactive)	> 100 µM (inactive)	> 100 µM (inactive)	–
